Experimental data reported in article PMC2193274 (The Journal of Experimental Medicine, 2000).
Each block holds one sequence with its values, some of them ahead of it.

Key:
[1] = tested on: T2 cells expressing Qa-1^b (T237); format: cell-based, human; settings: for Inhibition of killing of T237 targets by Qa-1^b-Qdm tetramer-positive NK cells: 30 μM peptide overnight and during the 4-h assay, Fig. 6
Dk = settings: cited from earlier work
Qa-1^b = Qa-1^b (Mus musculus, UniProt P06339); format: binding; settings: competition with biotin-Qdm4C

Sequence: AMAPRTLLL [Qdm]
Inhibition of lysis of T237 targets by tetramer-negative NK cells [1]: does not inhibit lysis
Inhibition of killing of T237 targets by Qa-1^b-Qdm tetramer-positive NK cells [1]: markedly inhibit killing

Sequence: RRLGRTLLL [MT(389–397)]
Binding to Dk (Dk): high affinity

Sequence: KMAPRTLLL [Qdm P1]
Inhibition of killing of T237 targets by Qa-1^b-Qdm tetramer-positive NK cells [1]: Substantial inhibition

Binding affinity for Qa-1 in competition assays compared with Qdm (Qa-1^b): affinity similar or identical to Qdm
Sequence: AMACRTLLL [Qdm4C]
